SMILES | melting point
Cc1cc(Nc2ccnc(Nc3ccc(S(=O)(=O)N(C)C4CCN(Cc5cc[nH]c5)CC4)cc3)n2)ccc1F [Example 111, 4-({4-[(4-Fluoro-3-methylphenyl)amino]-pyrimidin-2-yl}amino)-N-methyl-N-{1-[(1H-pyrrol-3-yl)-methyl]piperidin-4-yl}benzenesulfonamide] | 134 to 139 °C
CN(C1CCN(CC(F)(F)F)CC1)S(=O)(=O)c1ccc(Nc2nccc(Nc3ccc(F)cc3)n2)cc1 [Example 112, 4-({4-[(4-Fluorophenyl)amino]pyrimidin-2-yl}amino)-N-methyl-N-[1-(2,2,2-trifluoroethyl)piperidin-4-yl]benzenesulfonamide] | 201 to 202 °C
CN(C1CCSCC1)S(=O)(=O)c1ccc(Nc2nccc(Nc3ccc(F)cc3)n2)cc1 [Example 113, 4-({4-[(4-Fluorophenyl)amino]pyrimidin-2-yl}amino)-N-methyl-N-(tetrahydro-2H-thiopyran-4-yl)-benzenesulfonamide] | 181.5 °C
CN(C)CCN(C1CCS(=O)(=O)C1)S(=O)(=O)c1ccc(Nc2nccc(Nc3ccc(F)cc3)n2)cc1 (stereo not shown) [Example 114, N-[2-(Dimethylamino)ethyl]-N-(1,1-dioxido-tetrahydro-3-thienyl)-4-({4-[(4-fluorophenyl)amino]-pyrimidin-2-yl}amino)benzenesulfonamide] | 162 to 165 °C
CN(C1CCC(=O)CC1)S(=O)(=O)c1ccc(Nc2nccc(Nc3ccc(F)cc3)n2)cc1 [Example 118, 4-({4-[(4-Fluorophenyl)amino]pyrimidin-2-yl}amino)-N-methyl-N-(4-oxocyclohexyl)benzenesulfonamide] | 203 °C
O=S(=O)(c1ccc(Nc2nccc(Nc3ccc(F)cc3)n2)cc1)N(CCN1CCCC1)[C@H]1CC[C@H](O)CC1 [Example 119, 4-({4-[(4-Fluorophenyl)amino]pyrimidin-2-yl}amino)-N-(trans-4-hydroxycyclohexyl)-N-(2-pyrrolidin-1-ylethyl)benzenesulfonamide] | 135.2 °C
CN(C1CCC(O)CC1)S(=O)(=O)c1ccc(Nc2nccc(Nc3ccc(F)cc3)n2)cc1 (stereo not shown) [Example 120, 4-({4-[(4-Fluorophenyl)amino]pyrimidin-2-yl}amino)-N-(4-hydroxycyclohexyl)-N-methylbenzene-sulfonamide] | 203 °C
CNC1CCC(N(C)S(=O)(=O)c2ccc(Nc3nccc(Nc4ccc(F)cc4)n3)cc2)CC1 (stereo not drawn) [Example 121, 4-({4-[(4-Fluorophenyl)amino]pyrimidin-2-yl}amino)-N-methyl-N-[4-cis(methylamino)cyclohexyl]-benzenesulfonamide] | 192 °C
CNC1CCC(N(C)S(=O)(=O)c2ccc(Nc3nccc(Nc4ccc(F)cc4)n3)cc2)CC1 (stereo not drawn) [Example 122, 4-({4-[(4-Fluorophenyl)amino]pyrimidin-2-yl}amino)-N-methyl-N-[4-trans(methylamino)cyclohexyl]-benzenesulfonamide] | 195 °C
CCSCCN1CCC(NS(=O)(=O)c2ccc(Nc3nccc(Nc4ccc(F)cc4)n3)cc2)CC1 [Example 125, N-{1-[2-(Ethylthio)ethyl]piperidin-4-yl}-4-({4-[(4-fluorophenyl)amino]pyrimidin-2-yl}amino)-benzenesulfonamide] | 194 °C
CS(=O)(=O)CCN1CCC(NS(=O)(=O)c2ccc(Nc3nccc(Nc4ccc(F)cc4)n3)cc2)CC1 [Example 126, 4-({4-[(4-Fluorophenyl)amino]pyrimidin-2-yl}amino)-N-{1-[2-(methylsulfonyl)ethyl]piperidin-4-yl}benzenesulfonamide] | 183 °C
COCCN(C1CCS(=O)(=O)C1)S(=O)(=O)c1ccc(Nc2nccc(Nc3ccc(F)cc3)n2)cc1 (stereo not shown) [Example 127, 4-[[4-[(4-Fluorophenyl)amino]-2-pyrimidin-yl]amino]-N-(2-methoxyethyl)-N-(tetrahydro-1,1-dioxido-3-thienyl)benzenesulfonamide] | 150 °C
C=CCN(C1CCN(C)CC1)S(=O)(=O)c1ccc(Nc2nccc(Nc3ccc(F)cc3)n2)cc1 [Example 128, 4-({4-[(4-Fluorophenyl)amino]pyrimidin-2-yl}amino)-N-allyl-N-(1-methylpiperidin-4-yl)benzene-sulfonamide] | 167 °C
Cc1cc(Nc2ccnc(Nc3ccc(S(=O)(=O)N(C)C4CCN(CCS(C)(=O)=O)CC4)cc3)n2)ccc1F [Example 129, 4-({4-[(4-Fluoro-3-methylphenyl)amino]-pyrimidin-2-yl}amino)-N-methyl-N-{1-[2-(methyl-sulfonyl)ethyl]piperidin-4-yl}benzenesulfonamide] | 114.5 °C
CCCN(C1CCN(C)CC1)S(=O)(=O)c1ccc(Nc2nccc(Nc3ccc(F)cc3)n2)cc1 [Example 130, 4-({4-[(4-Fluorophenyl)amino]pyrimidin-2-yl}amino)-N-propyl-N-(1-methylpiperidin-4-yl)benzene-sulfonamide] | 232 °C
Cc1cc(Nc2ccnc(Nc3ccc(S(=O)(=O)N(C)C4CCN(Cc5nccs5)CC4)cc3)n2)ccc1F [Example 131, 4-({4-[(4-Fluoro-3-methylphenyl)amino]-pyrimidin-2-yl}amino)-N-methyl-N-{1-[(1-thiazol-2-yl)-methyl]piperidin-4-yl}benzenesulfonamide] | 176 to 177 °C
Cc1cc(Nc2ccnc(Nc3ccc(S(=O)(=O)N(C)C4CCN(Cc5cncs5)CC4)cc3)n2)ccc1F [Example 132, 4-({4-[(4-Fluoro-3-methylphenyl)amino]-pyrimidin-2-yl}amino)-N-methyl-N-{1-[(1-thiazol-5-yl)-methyl]piperidin-4-yl}benzenesulfonamide] | 196 to 197 °C
Cc1cc(Nc2ccnc(Nc3ccc(S(=O)(=O)N(C)C4CCN(Cc5cn[nH]c5)CC4)cc3)n2)ccc1F [Example 134, 4-({4-[(4-Fluoro-3-methylphenyl)amino]-pyrimidin-2-yl}amino)-N-methyl-N-{1-[(1H-pyrazol-4-yl)methyl]piperidin-4-yl}benzenesulfonamide] | 224 °C
Cc1cc(Nc2ccnc(Nc3ccc(S(=O)(=O)N(C)C4CCN(Cc5cnn(C)c5)CC4)cc3)n2)ccc1F [Example 135, 4-({4-[(4-Fluoro-3-methylphenyl)amino]-pyrimidin-2-yl}amino)-N-methyl-N-{1-[(1-methyl-1H-pyrazol-4-yl)methyl]piperidin-4-yl}benzenesulfonamide] | 125 to 150 °C
Cc1cc(CN2CCC(N(C)S(=O)(=O)c3ccc(Nc4nccc(Nc5ccc(F)c(C)c5)n4)cc3)CC2)[nH]n1 [Example 136, 4-({4-[(4-Fluoro-3-methylphenyl)amino]-pyrimidin-2-yl}amino)-N-methyl-N-{1-[(5-methyl-2H-pyrazol-3-yl)methyl]piperidin-4-yl}benzenesulfonamide] | 130 °C
Cc1cc(Nc2ccnc(Nc3ccc(S(=O)(=O)N(C)C4CCC(F)(F)CC4)cc3)n2)ccc1F [Example 137, N-(4,4-Difluorocyclohexyl)-4-[4-(4-fluoro-3-methylphenylamino)pyrimidin-2-ylamino]-N-methyl-benzenesulfonamide] | 164 to 165 °C
Cc1cc(CN2CCC(N(C)S(=O)(=O)c3ccc(Nc4nccc(Nc5ccc(F)c(C)c5)n4)cc3)CC2)no1 [Example 138, 4-({4-[(4-Fluoro-3-methylphenyl)amino]-pyrimidin-2-yl}amino)-N-methyl-N-{1-[(5-methylisoxazol-3-yl)methyl]piperidin-4-yl}benzenesulfonamide] | 172 to 173 °C

Reference: patent US20080269170A1, “Novel 2,4-Dianilinopyrimidine Derivatives, the Preparation Thereof, Their Use as Medicaments, Pharmaceutical Compositions and, in Particular, as IKK Inhibitors” (sanofi-aventis, priority 2005, published 2008)
